A word on the Km: it is the substrate concentration at which the rate is half of its maximum. In general, kcat refers to the number of substrate molecules converted per active site and unit of time at saturation. Usually kcat/Km stands for the second-order rate constant that governs catalysis at low substrate concentration.

This is an account of results in PMC4824433, “A Carbapenem-Resistant Pseudomonas aeruginosa Isolate Harboring Two Copies of blaIMP-34 Encoding a Metallo-β-Lactamase” (PLoS ONE, 2016).

In brackets after ≈: the same amount, converted by molar mass.

In one data set the test system is T1, E. coli DH5α (pHSG398).
T1 construct: DH5α (pHSG398) empty vector control
The data set is described as follows: microbe, parasite or virus in culture. The arrangement: CLSI microdilution susceptibility test, minimum inhibitory concentration of bacterial growth. The note with it: Escherichia coli; empty vector control; read-out: MIC (μg/ml) / E. coli DH5α (pHSG398). As for the experimental part:
(§1) The ORFs of blaIMP-1 and blaIMP-34 were amplified by PCR using the primers EcoRI-IMP-1/34-F(5′-gggGAATTCatgagcaagttatctgtattc-3′; uppercase letters indicate an EcoRI digestion site) and PstI-IMP-1/34-R (5′-aaaCTGCAGttagttgcttggttttgatgg-3′; uppercase letters indicate a PstI digestion site). […] The plasmids were used to transform DH5α, and transformants were selected on LB agar containing 30 μg/mL of chloramphenicol, and their susceptibilities to various β-lactams were assayed. P. aeruginosa NCGM2.S1 harboring blaIMP-1 was used as a reference strain [12].

Data set [1] deals with T2, E. coli DH5α (pHSG398/IMP-1).
T2 construct: DH5α (pHSG398/IMP-1) transformant expressing blaIMP-1 from pHSG398
Description: microbe, parasite or virus in culture. The arrangement: CLSI microdilution susceptibility test, minimum inhibitory concentration of bacterial growth. The note with it: Escherichia coli, read-out: MIC (μg/ml) / E. coli DH5α (pHSG398/IMP-1). As to the method: as §1

A further data set has as its system T3, P. aeruginosa NCGM1984.
T3 construct: NCGM1984 (clinical isolate, ST235, two chromosomal copies of blaIMP-34)
Description: microbe, parasite or virus in culture. The arrangement: CLSI microdilution susceptibility test, minimum inhibitory concentration of bacterial growth. The conditions noted are these: clinical isolate carrying two copies of blaIMP-34; for MIC: Pseudomonas aeruginosa, NCGM1984, read-out: MIC (μg/ml) / P. aeruginosa NCGM1984.

Data set [2] has as its system CO/N=C(\C(=O)N[C@@H]1C(=O)N2C(C(=O)O)=C(COC(C)=O)CS[C@H]12)c1csc(N)n1. Description: purified protein. The conditions noted are these: 50 mM Tris-HCl pH 7.4, 5 μM Zn(NH3)2, 37°C.
Description: (§2) UV-visible spectrophotometry, initial rates, Lineweaver-Burk plots on IMP-1
Data set [3] relates to CO[C@@]1(NC(=O)Cc2cccs2)C(=O)N2C(C(=O)O)=C(COC(N)=O)CS[C@@H]21. Description: purified protein. The note with it: 50 mM Tris-HCl pH 7.4, 5 μM Zn(NH3)2, 37°C.
Description: as §2
The subject of data set [4] is CC1(C)S[C@@H]2[C@H](NC(=O)Cc3ccccc3)C(=O)N2[C@H]1C(=O)O. The data set is described as follows: purified protein. The note with it: 50 mM Tris-HCl pH 7.4, 5 μM Zn(NH3)2, 37°C.
Description: as §2
The subject of data set [5] is CO/N=C(\C(=O)N[C@@H]1C(=O)N2C(C(=O)[O-])=C(C[N+]3(C)CCCC3)CS[C@H]12)c1csc(N)n1. The data set is described as follows: purified protein. The note with it: 50 mM Tris-HCl pH 7.4, 5 μM Zn(NH3)2, 37°C.
Description: as §2
Data set [6] relates to CC1(C)S[C@@H]2[C@H](NC(=O)[C@H](N)c3ccccc3)C(=O)N2[C@H]1C(=O)O. The data set is described as follows: purified protein. The note with it: 50 mM Tris-HCl pH 7.4, 5 μM Zn(NH3)2, 37°C.
Description: as §2
Data set [7] concerns CC1=C(C(=O)O)N2C(=O)[C@@H](NC(=O)[C@H](N)C3=CCC=CC3)[C@H]2SC1. Description: purified protein. The note with it: 50 mM Tris-HCl pH 7.4, 5 μM Zn(NH3)2, 37°C.
Description: as §2
Data set [8] has as its system C[C@@H](O)[C@H]1C(=O)N2C(C(=O)O)=C(S[C@@H]3CN[C@H](C(=O)N(C)C)C3)[C@H](C)[C@H]12. Description: purified protein. The note with it: 50 mM Tris-HCl pH 7.4, 5 μM Zn(NH3)2, 37°C.
Description: as §2
The test system of data set [9] is C[C@@H](O)[C@H]1C(=O)N2C(C(=O)O)=C(S[C@@H]3CN[C@H](CNS(N)(=O)=O)C3)[C@H](C)[C@H]12. The data set is described as follows: purified protein. The note with it: 50 mM Tris-HCl pH 7.4, 5 μM Zn(NH3)2, 37°C.
Description: as §2
The subject of data set [10] is C[C@@H](O)[C@H]1C(=O)N2C(C(=O)O)=C(SCCN=CN)C[C@H]12. The data set is described as follows: purified protein. The conditions noted are these: 50 mM Tris-HCl pH 7.4, 5 μM Zn(NH3)2, 37°C.
Description: as §2
Data set [11] relates to CC(C)(O/N=C(\C(=O)N[C@@H]1C(=O)N2C(C(=O)[O-])=C(C[n+]3ccccc3)CS[C@H]12)c1csc(N)n1)C(=O)O. Description: purified protein. The note with it: 50 mM Tris-HCl pH 7.4, 5 μM Zn(NH3)2, 37°C.
Description: as §2

For the compound `CC1(C)S[C@@H]2[C@H](NC(=O)Cc3ccccc3)C(=O)N2[C@H]1C(=O)O` [Penicillin G], the MIC was 32 µg/mL (≈ 95.7 µM) in the data set with E. coli DH5α (pHSG398), 128 µg/mL (≈ 383 µM) in data set [1] and > 1020 µg/mL in the data set on P. aeruginosa NCGM1984.
In the case of `CC(C)(O/N=C(\C(=O)N[C@@H]1C(=O)N2C(C(=O)[O-])=C(C[n+]3ccccc3)CS[C@H]12)c1csc(N)n1)C(=O)O` [Ceftazidime], the MIC was ≤ 0.25 µg/mL in the data set with E. coli DH5α (pHSG398) and 512 µg/mL (≈ 937 µM) in [1]. Moreover, the “MIC (μg/ml) / P. aeruginosa NCGM1984” value in the data set with P. aeruginosa NCGM1984 is listed as > 1,024 ug/mL.
Take `CO/N=C(\C(=O)N[C@@H]1C(=O)N2C(C(=O)O)=C(COC(N)=O)CS[C@H]12)c1ccco1` [Cefuroxime]: the results for the MIC (in the data set with E. coli DH5α (pHSG398); in [1]; in the data set with P. aeruginosa NCGM1984) were 4 µg/mL (≈ 9.43 µM), 256 µg/mL (≈ 603 µM) and > 1020 µg/mL, respectively.
Taken in the same sequence, the figures for `C[C@@H](O)[C@H]1C(=O)N2C(C(=O)O)=C(S[C@@H]3CN[C@H](C(=O)N(C)C)C3)[C@H](C)[C@H]12` [Meropenem] were ≤ 0.25 µg/mL, 0.5 µg/mL (≈ 1.3 µM) and > 1020 µg/mL.
For `CO/N=C(\C(=O)N[C@@H]1C(=O)N2C(C(=O)O)=C(COC(C)=O)CS[C@H]12)c1csc(N)n1` [Cefotaxime], the MIC in the data set on E. coli DH5α (pHSG398) was ≤ 0.25 µg/mL; in data set [1], 16 µg/mL (≈ 35.1 µM); in the data set with P. aeruginosa NCGM1984 it was > 1020 µg/mL.
Taken in the same sequence, the figures for `C[C@H]1[C@H](NC(=O)/C(=N\OC(C)(C)C(=O)O)c2csc(N)n2)C(=O)N1S(=O)(=O)O` [Aztreonam] were ≤ 0.25 µg/mL, ≤ 0.25 µg/mL and 64 µg/mL (≈ 147 µM).
Taken in the same sequence, the figures for `C[C@@H](O)[C@H]1C(=O)N2C(C(=O)O)=C(SCCN=CN)C[C@H]12` [Imipenem] were ≤ 0.25 µg/mL, 0.5 µg/mL (≈ 1.67 µM) and 512 µg/mL (≈ 1710 µM).
Taken in the same sequence, the figures for `CC1=C(C(=O)O)N2C(=O)[C@@H](NC(=O)[C@H](N)C3=CCC=CC3)[C@H]2SC1` [Cephradine] were 16 µg/mL (≈ 45.8 µM), 256 µg/mL (≈ 733 µM) and > 1020 µg/mL.
In the case of `C[C@@H](O)[C@H]1C(=O)N2C(C(=O)O)=C(S[C@@H]3CN[C@H](CNS(N)(=O)=O)C3)[C@H](C)[C@H]12` [Doripenem], the MIC in the data set on E. coli DH5α (pHSG398) was ≤ 0.25 µg/mL; in [1], 0.25 µg/mL (≈ 0.595 µM); in the data set on P. aeruginosa NCGM1984, > 1020 µg/mL.
Regarding IMP-1 (Serratia marcescens), the Km in data set [2] is 13 ± 2 µM; in data set [3], 34 ± 5 µM; in data set [4], 685 ± 99 µM; in [5], 22 ± 8 µM; in data set [6], 341 ± 17 µM; in data set [7], 73 ± 2 µM. Further, the Km in data set [8] worked out at 37 ± 12 µM; in data set [9], 39 ± 8 µM; in data set [10], 58 ± 14 µM; in data set [11], 26 ± 1 µM. For the same compound, the kcat turned out to be 2.8 ± 0.1 s⁻¹ in [2]; 2.7 ± 0.1 s⁻¹ in [3]; 94 ± 12 s⁻¹ in data set [4]; 1.4 ± 0.2 s⁻¹ in [5]; 16 ± 1 s⁻¹ in data set [6]; 21 ± 1 s⁻¹ in data set [7]. Also, the kcat was determined as 2.3 ± 0.2 s⁻¹ in data set [8], 4.8 ± 0.1 s⁻¹ in data set [9], 6.9 ± 0.5 s⁻¹ in data set [10] and 0.68 ± 0.01 s⁻¹ in [11]. In addition, the kcat/Km in data set [2] amounted to 220000 M⁻¹ s⁻¹; in [3], 80000 M⁻¹ s⁻¹; in data set [4], 140000 M⁻¹ s⁻¹; in data set [5], 68000 M⁻¹ s⁻¹; in data set [6] it was 48000 M⁻¹ s⁻¹; in [7], 290000 M⁻¹ s⁻¹. Also, the kcat/Km in [8] is 66000 M⁻¹ s⁻¹; in data set [9], 130000 M⁻¹ s⁻¹; in data set [10], 120000 M⁻¹ s⁻¹; in [11], 26000 M⁻¹ s⁻¹.
Regarding `CO/N=C(\C(=O)N[C@@H]1C(=O)N2C(C(=O)O)=C(CSc3nc(=O)c(O)nn3C)CS[C@H]12)c1csc(N)n1` [Ceftriaxone], the MIC with E. coli DH5α (pHSG398) was ≤ 0.25 µg/mL; in data set [1], 64 µg/mL (≈ 115 µM); with P. aeruginosa NCGM1984, > 1020 µg/mL.
Taken in the same sequence, the figures for `CO/N=C(\C(=O)N[C@@H]1C(=O)N2C(C(=O)[O-])=C(C[n+]3cccc4c3CCC4)CS[C@H]12)c1csc(N)n1` [Cefpirome] were ≤ 0.25 µg/mL, 0.25 µg/mL (≈ 0.486 µM) and 512 µg/mL (≈ 995 µM).
On to `CO[C@@]1(NC(=O)C(C(=O)O)c2ccc(O)cc2)C(=O)N2C(C(=O)O)=C(CSc3nnnn3C)CO[C@@H]21` (stereo partly shown) [Moxalactam], for which the MIC in the data set with E. coli DH5α (pHSG398) is ≤ 0.25 µg/mL; in data set [1] it was 64 µg/mL (≈ 123 µM); in the data set with P. aeruginosa NCGM1984, > 1020 µg/mL.
In the case of `CO/N=C(\C(=O)N[C@@H]1C(=O)N2C(C(=O)[O-])=C(C[N+]3(C)CCCC3)CS[C@H]12)c1csc(N)n1` [Cefepime], the MIC with P. aeruginosa NCGM1984 was > 1020 µg/mL.
For the compound `CC1(C)S[C@@H]2[C@H](NC(=O)[C@H](N)c3ccccc3)C(=O)N2[C@H]1C(=O)O` [Ampicillin], the MIC with E. coli DH5α (pHSG398) was 2 µg/mL (≈ 5.72 µM); in data set [1] it was 32 µg/mL (≈ 91.6 µM); in the data set on P. aeruginosa NCGM1984 it was > 1020 µg/mL.
Regarding `CO/N=C(\C(=O)N[C@@H]1C(=O)N2C(C(=O)[O-])=C(C[n+]3ccn4ncccc43)CS[C@H]12)c1nsc(N)n1` [Cefozopran], the figures for the MIC (with E. coli DH5α (pHSG398); in data set [1]; in the data set with P. aeruginosa NCGM1984) were ≤ 0.25 µg/mL, 4 µg/mL (≈ 7.76 µM) and > 1020 µg/mL, respectively.
Taken in the same sequence, the figures for `CO[C@@]1(NC(=O)Cc2cccs2)C(=O)N2C(C(=O)O)=C(COC(N)=O)CS[C@@H]21` [Cefoxitin] were 2 µg/mL (≈ 4.68 µM), 512 µg/mL (≈ 1200 µM) and > 1020 µg/mL.
